ChEMBL document CHEMBL5150061, “Design and Synthesis of Fibroblast Growth Factor Receptor (FGFR) and Histone Deacetylase (HDAC) Dual Inhibitors for the Treatment of Cancer” (J Med Chem, 2022)

Experiments:
[1] = Tmax in Sprague-Dawley rat at 2 mg/kg, iv measured for 24 hrs by LC-MS/MS-18 analysis; format: ADME, organism-based; settings: in vivo
[2] = target: Fibroblast growth factor receptor 3 (Homo sapiens, UniProt P22607); assay: Inhibition of FGFR3 (unknown origin)
[3] = Half life in Sprague-Dawley rat at 30 mg/kg, po measured for 24 hrs by LC-MS/MS-18 analysis; format: ADME, organism-based; settings: in vivo
[4] = Volume of distribution at steady state in Sprague-Dawley rat at 2 mg/kg, iv measured for 24 hrs by LC-MS/MS-18 analysis; format: ADME, organism-based; settings: in vivo, read-out: Vdss
[5] = Half life in Sprague-Dawley rat at 5 mg/kg, ip measured for 24 hrs by LC-MS/MS-18 analysis; format: ADME, organism-based; settings: in vivo
[6] = Tmax in Sprague-Dawley rat at 30 mg/kg, po measured for 24 hrs by LC-MS/MS-18 analysis; format: ADME, organism-based; settings: in vivo
[7] = target: Fibroblast growth factor receptor 4 (Homo sapiens, UniProt P22455); assay: Inhibition of FGFR4 (unknown origin)
Fibroblast growth factor receptor 4, sequence (P22455 whole entry): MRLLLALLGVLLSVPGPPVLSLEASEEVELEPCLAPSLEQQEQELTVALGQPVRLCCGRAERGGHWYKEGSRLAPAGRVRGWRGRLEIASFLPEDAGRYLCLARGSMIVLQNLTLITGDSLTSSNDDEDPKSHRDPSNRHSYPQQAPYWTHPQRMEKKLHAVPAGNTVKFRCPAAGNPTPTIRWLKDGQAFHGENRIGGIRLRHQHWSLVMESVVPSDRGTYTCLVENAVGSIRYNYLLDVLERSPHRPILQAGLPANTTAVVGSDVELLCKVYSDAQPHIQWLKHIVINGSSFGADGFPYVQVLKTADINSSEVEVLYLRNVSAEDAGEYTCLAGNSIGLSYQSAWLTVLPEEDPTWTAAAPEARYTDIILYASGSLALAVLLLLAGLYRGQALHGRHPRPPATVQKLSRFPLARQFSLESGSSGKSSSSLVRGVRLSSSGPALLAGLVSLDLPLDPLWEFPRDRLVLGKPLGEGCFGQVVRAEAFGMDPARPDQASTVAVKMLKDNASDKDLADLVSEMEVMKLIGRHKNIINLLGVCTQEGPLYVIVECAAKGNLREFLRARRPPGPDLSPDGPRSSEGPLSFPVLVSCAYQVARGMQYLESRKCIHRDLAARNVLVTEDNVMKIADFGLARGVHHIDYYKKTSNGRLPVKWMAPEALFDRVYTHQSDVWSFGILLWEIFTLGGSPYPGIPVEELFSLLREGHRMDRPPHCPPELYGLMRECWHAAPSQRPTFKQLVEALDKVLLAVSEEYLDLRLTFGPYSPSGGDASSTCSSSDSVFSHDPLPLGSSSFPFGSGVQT

[8] = AUC (0 to infinity) in Sprague-Dawley rat at 30 mg/kg, po measured for 24 hrs by LC-MS/MS-18 analysis; format: ADME, organism-based; parameters: dose 30 mg/kg, time 24 hrs, route po; settings: in vivo
[9] = Toxicity in BALB/c nude mouse xenografted with human HCT-116 cells assessed as reduction in body weight at 15 to 30 mg/kg/day, po administered for 18 days and measured every 3 days; format: organism-based; settings: in vivo, 432 h, dose 15-30 mg/kg/day, time 18 day
[10] = Tmax in Sprague-Dawley rat at 5 mg/kg, ip measured for 24 hrs by LC-MS/MS-18 analysis; format: ADME, organism-based; settings: in vivo
[11] = target: Histone deacetylase 2 (Homo sapiens, UniProt Q92769); assay: Inhibition of HDAC2 (unknown origin)
Histone deacetylase 2, sequence (Q92769 whole entry): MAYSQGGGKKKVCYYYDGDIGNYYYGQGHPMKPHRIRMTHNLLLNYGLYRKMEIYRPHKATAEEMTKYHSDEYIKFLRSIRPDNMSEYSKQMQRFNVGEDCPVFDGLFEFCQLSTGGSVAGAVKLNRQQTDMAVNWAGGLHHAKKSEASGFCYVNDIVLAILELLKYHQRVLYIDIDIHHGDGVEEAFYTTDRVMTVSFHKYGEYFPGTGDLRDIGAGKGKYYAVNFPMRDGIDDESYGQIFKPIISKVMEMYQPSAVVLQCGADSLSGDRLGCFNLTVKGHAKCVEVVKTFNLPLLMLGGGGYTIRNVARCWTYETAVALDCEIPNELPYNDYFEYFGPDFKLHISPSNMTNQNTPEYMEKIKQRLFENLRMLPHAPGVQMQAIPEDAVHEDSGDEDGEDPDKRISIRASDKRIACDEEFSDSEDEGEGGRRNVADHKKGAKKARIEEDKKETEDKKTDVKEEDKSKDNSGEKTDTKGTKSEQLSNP

[12] = target: T1, Histone deacetylase 8 (Homo sapiens, UniProt Q9BY41); assay: Inhibition of HDAC8 (unknown origin)
T1 sequence (Q9BY41 whole entry): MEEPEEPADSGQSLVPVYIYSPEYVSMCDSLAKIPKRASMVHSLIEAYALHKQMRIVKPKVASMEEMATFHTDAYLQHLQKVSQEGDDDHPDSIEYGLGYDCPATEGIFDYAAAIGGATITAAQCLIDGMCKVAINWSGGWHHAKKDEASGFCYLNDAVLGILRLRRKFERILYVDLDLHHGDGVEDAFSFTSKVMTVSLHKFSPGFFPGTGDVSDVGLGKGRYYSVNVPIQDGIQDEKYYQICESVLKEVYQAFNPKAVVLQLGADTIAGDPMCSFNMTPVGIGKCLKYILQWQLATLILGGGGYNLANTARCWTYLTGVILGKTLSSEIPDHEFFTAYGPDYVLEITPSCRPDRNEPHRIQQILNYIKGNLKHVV

[13] = Clearance in Sprague-Dawley rat at 2 mg/kg, iv measured for 24 hrs by LC-MS/MS-18 analysis; format: ADME, organism-based; settings: in vivo
[14] = AUC (0 to infinity) in Sprague-Dawley rat at 2 mg/kg, iv measured for 24 hrs by LC-MS/MS-18 analysis; format: ADME, organism-based; parameters: time 24 hrs, dose 2 mg/kg, route iv; settings: in vivo
[15] = Cmax in Sprague-Dawley rat at 5 mg/kg, ip measured for 24 hrs by LC-MS/MS-18 analysis; format: ADME, organism-based; parameters: time 24 hrs, dose 5 mg/kg, route ip; settings: in vivo
[16] = Toxicity in BALB/c nude mouse xenografted with human SNU-16 cells assessed as reduction in body weight at 15 to 30 mg/kg/day, ip administered for 18 days and measured every 3 days; format: organism-based; settings: in vivo, 432 h, dose 15-30 mg/kg/day, time 18 day
[17] = target: T2, Protein deacetylase HDAC6 (Homo sapiens, UniProt Q9UBN7); assay: Inhibition of HDAC6 (unknown origin)
T2 sequence (Q9UBN7 whole entry): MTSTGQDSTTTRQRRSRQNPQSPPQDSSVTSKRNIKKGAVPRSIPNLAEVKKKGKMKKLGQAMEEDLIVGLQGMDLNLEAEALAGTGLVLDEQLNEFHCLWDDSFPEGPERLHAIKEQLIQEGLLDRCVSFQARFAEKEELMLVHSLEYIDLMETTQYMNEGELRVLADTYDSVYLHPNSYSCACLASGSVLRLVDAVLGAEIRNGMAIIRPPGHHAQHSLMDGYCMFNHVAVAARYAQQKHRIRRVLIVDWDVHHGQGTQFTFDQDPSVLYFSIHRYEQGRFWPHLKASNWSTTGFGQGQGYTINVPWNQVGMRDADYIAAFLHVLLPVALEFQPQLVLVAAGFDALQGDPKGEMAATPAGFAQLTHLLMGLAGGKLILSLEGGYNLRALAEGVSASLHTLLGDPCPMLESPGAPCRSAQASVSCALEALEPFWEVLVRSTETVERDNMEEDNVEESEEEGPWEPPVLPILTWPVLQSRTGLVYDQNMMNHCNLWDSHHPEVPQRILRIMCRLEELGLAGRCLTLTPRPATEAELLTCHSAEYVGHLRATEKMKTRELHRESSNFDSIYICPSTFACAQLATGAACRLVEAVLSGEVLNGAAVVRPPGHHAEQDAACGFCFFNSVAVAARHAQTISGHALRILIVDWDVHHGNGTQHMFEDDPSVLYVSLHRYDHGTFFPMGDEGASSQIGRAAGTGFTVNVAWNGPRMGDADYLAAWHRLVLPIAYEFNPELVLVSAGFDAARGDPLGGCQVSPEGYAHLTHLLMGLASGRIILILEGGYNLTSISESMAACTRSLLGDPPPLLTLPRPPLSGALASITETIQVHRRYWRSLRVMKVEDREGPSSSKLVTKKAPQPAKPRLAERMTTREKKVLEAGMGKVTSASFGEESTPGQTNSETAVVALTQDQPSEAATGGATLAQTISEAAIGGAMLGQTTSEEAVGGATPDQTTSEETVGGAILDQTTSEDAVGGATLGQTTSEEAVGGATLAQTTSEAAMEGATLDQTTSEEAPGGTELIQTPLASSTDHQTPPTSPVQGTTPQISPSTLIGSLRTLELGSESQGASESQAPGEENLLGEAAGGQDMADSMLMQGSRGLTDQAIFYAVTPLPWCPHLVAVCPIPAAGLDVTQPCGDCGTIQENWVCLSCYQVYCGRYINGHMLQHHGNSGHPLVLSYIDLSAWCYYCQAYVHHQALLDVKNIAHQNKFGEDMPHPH

[18] = Cmax in Sprague-Dawley rat at 30 mg/kg, po measured for 24 hrs by LC-MS/MS-18 analysis; format: ADME, organism-based; parameters: dose 30 mg/kg, time 24 hrs, route po; settings: in vivo
[19] = Oral bioavailability in Sprague-Dawley rat at 30 mg/kg measured for 24 hrs by LC-MS/MS-18 analysis; format: ADME, organism-based; settings: in vivo
[20] = Cmax in Sprague-Dawley rat at 2 mg/kg, iv measured for 24 hrs by LC-MS/MS-18 analysis; format: ADME, organism-based; parameters: time 24 hrs, dose 2 mg/kg, route iv; settings: in vivo
[21] = target: Histone deacetylase 1 (Homo sapiens, UniProt Q13547); assay: Inhibition of HDAC1 (unknown origin)
Histone deacetylase 1, sequence (Q13547 whole entry): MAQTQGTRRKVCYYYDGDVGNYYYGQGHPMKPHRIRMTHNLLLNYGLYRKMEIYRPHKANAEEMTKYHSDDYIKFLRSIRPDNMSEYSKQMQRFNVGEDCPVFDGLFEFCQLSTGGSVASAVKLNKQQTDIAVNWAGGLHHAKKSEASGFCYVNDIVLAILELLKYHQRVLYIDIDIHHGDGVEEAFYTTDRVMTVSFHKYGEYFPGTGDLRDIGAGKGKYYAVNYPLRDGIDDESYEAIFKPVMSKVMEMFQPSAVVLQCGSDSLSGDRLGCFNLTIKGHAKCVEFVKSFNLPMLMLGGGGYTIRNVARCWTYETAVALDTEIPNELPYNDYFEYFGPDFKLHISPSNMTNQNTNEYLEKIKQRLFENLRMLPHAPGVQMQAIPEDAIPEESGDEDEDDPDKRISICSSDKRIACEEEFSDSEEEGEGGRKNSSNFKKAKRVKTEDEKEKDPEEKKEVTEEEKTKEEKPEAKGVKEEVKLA

[22] = Oral bioavailability in Sprague-Dawley rat at 5 mg/kg measured for 24 hrs by LC-MS/MS-18 analysis; format: ADME, organism-based; settings: in vivo, route ip
[23] = AUC (0 to infinity) in Sprague-Dawley rat at 5 mg/kg, ip measured for 24 hrs by LC-MS/MS-18 analysis; format: ADME, organism-based; parameters: time 24 hrs, dose 5 mg/kg, route ip; settings: in vivo
[24] = target: Fibroblast growth factor receptor 2 (Homo sapiens, UniProt P21802); assay: Inhibition of FGFR2 (unknown origin)
Fibroblast growth factor receptor 2, sequence (P21802 whole entry): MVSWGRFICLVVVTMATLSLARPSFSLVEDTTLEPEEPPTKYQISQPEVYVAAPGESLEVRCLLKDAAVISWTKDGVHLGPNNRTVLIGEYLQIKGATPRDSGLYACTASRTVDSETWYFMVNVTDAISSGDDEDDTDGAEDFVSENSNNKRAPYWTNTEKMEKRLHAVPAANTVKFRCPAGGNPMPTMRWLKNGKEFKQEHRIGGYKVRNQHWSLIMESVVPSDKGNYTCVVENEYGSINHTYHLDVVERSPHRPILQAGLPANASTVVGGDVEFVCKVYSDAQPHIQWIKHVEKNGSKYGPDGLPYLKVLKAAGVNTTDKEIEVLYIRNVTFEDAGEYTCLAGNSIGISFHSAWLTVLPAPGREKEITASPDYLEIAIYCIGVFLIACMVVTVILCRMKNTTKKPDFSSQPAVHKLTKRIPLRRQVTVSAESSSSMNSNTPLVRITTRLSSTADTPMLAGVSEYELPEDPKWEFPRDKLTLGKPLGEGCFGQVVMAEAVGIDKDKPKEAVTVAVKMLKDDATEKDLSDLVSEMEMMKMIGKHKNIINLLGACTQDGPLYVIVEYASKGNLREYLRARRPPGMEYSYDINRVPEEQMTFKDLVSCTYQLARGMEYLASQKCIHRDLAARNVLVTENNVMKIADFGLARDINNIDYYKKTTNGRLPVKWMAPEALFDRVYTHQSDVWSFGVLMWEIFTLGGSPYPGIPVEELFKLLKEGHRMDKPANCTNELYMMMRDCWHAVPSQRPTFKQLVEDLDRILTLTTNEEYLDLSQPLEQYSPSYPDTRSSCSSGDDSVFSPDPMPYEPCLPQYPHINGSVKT

[25] = Half life in Sprague-Dawley rat at 2 mg/kg, iv measured for 24 hrs by LC-MS/MS-18 analysis; format: ADME, organism-based; settings: in vivo

Fibroblast growth factor receptor 3, sequence (P22607 whole entry): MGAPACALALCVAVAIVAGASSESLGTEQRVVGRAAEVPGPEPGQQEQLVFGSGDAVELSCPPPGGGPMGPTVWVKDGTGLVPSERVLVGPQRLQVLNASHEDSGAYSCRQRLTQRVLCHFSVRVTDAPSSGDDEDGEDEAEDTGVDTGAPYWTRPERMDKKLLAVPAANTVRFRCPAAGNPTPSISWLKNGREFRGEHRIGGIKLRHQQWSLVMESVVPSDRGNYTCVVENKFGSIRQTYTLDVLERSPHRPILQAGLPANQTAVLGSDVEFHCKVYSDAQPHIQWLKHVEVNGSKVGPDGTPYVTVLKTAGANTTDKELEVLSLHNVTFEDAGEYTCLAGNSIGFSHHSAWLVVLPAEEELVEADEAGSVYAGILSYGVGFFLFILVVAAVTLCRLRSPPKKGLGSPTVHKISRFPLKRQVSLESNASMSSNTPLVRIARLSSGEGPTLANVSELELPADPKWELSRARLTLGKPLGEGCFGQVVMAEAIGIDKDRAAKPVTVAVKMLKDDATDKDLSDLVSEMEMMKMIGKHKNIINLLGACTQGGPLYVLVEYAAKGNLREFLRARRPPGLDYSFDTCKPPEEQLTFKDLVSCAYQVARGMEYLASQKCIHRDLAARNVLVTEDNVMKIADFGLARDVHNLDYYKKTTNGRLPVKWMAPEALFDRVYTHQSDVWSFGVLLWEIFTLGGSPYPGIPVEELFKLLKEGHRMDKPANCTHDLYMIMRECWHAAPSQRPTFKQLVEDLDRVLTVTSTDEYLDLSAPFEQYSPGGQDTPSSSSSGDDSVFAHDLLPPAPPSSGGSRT

Tmax [1]: 4.8 min
IC50 [2]: 0.46 nM
half-life [3]: 0.77 h
Vd [4]: 2.79 L/kg
half-life [5]: 1.83 h
Tmax [6]: 4 h
IC50 [7]: 1.4 nM
AUC(0-inf) [8]: 1560 ng·h/mL
Tmax [10]: 2 h
IC50 [11]: 1.6 nM
IC50 [12]: 13 nM
clearance [13]: 80.6 mL/min/kg
AUC(0-inf) [14]: 425 ng·h/mL
Cmax [15]: 102 ng/mL
IC50 [17]: 2.6 nM
Cmax [18]: 443 ng/mL
bioavailability [19]: 24.8%
Cmax [20]: 1120 ng/mL
IC50 [21]: 1.3 nM
bioavailability [22]: 43.8%
AUC(0-inf) [23]: 491 ng·h/mL
IC50 [24]: 1.2 nM
half-life [25]: 0.98 h
Compound: COc1cc(OC)cc(N(CCNC(C)C)c2ccc3ncc(-c4cnn(CCCCCCC(=O)NO)c4)nc3c2)c1
Activity [9]: Non-Toxic
Activity [16]: Non-Toxic
